# Test results taken from patent US20150374646A1, “TREATMENT OF CANCER AND OTHER CONDITIONS USING A TRANSCRIPTION FACTOR MODULATOR” (C & C BIOPHARMA, LLC, priority 2013, published 2015).
# pIC50: −log10 of the molar value.
# Legend:
# K562R = assay: Leukemia cell growth inhibition, CellTiter-Glo (Example 1); format: cell-based; details: Homo sapiens, K-562R, CML (Gleevec resistant), 72 hours
# Experimental: (§1) Various human leukemia cells were grown to the logarithmic growth phase and seeded into 24-well plates. […] Treated cells were further incubated for 72 hours and then were examined for cell proliferation. Cell proliferation was determined using the CellTiter-Glo Luminescence Cell Viability assay (Promega Corporation, Madison, Wis.) according to the manufacturer's protocol. The calculated inhibition rate was determined with the following formula: Inhibition rate (%)=(1−Luminescence of experimental group/Luminescence of control group)×100. IC50 is the calculated concentration of a compound needed to inhibit half of the maximum cell growth (equivalent to cell growth in control group) based on the corresponding dose-response curve under the described experimental conditions.
# MOLT-4 = assay: as above; format: cell-based; details: Homo sapiens; MOLT-4, ALL (T-cell); 72 hours
# Experimental: as §1
# K-562 = assay: as above; format: cell-based; details: Homo sapiens, K562; K-562, CML; 72 hours
# Experimental: as §1
# RS4;11 = assay: as above; format: cell-based; details: Homo sapiens; RS4;11, ALL (B-cell); 72 hours
# Experimental: as §1
# HL60 = assay: as above; format: cell-based, human
# Experimental: as §1
# Nalm-6 = assay: cells; details: Homo sapiens, NALM-6, 72 h, read-out: 72 hr growth inhibition (%)
# Experimental: as §1
# Growth inhibition experiments were performed as previously described.
# BaF3 BCR-ABL T315I = assay: Leukemia cell growth inhibition, CellTiter-Glo (Example 1); format: cell-based; details: Mouse cell line with BCR-ABL with T315I point mutation (Gleevec resistant), 72 hours
# Experimental: as §1
# Nalm-6 cells = assay: Survival of BALB/c nude mice with Nalm-6 acute B cell lymphoblastic leukemia (Example 2); format: in vivo
# Experimental: BALB/c nu/nu nude mice were 4 to 5 weeks old with an average weight of 22.4±1.03 grams. The mice were raised under specific pathogen-free (SPF) conditions and had access to food and water freely. Cyclophosphamide at about 130 mg/kg per day was administrated with intraperitoneal (IP) injection for 2 days. Twenty-four hours later, a suspension of 3.5×10^6 or 5×10^6 Nalm-6 cells (0.2 mL) were injected through tail vein of each BALB/c nude mouse. Five days later, the mice were randomly divided into a YT30 treated group (n=5) and a solvent control group (n=5).
# Mice in the YT30 treated group were intraperitoneally injected with 200 μL of YT30 (50 mg/kg) once a day, for 5 days a week, and for 3 or 4 weeks. The mice in the solvent control group were intraperitoneally injected with the same volume of solvent (20% DMSO, 80% of 20% w/v (2-hydroxypropyl)-β-cyclodextrin in PBS), and were on the same treatment schedule as the YT30 treated group. The body weights of the mice were recorded prior to the start of the treatment and at least twice a week thereafter. The dosages were adjusted according to the body weight to conform to the 50 mg/kg/day treatment plan. Each mouse of every group was also monitored daily for any other symptoms of side effects including change in behavior, activity or posture, areas of redness and swelling, and food and water withdrawal. […] Dates of death were recorded.
# U266 = assay: Leukemia cell growth inhibition, CellTiter-Glo (Example 1); format: cell-based; details: Homo sapiens, U-266; U266, Multiple myeloma; 72 hours
# Experimental: as §1
# CCRF-CEM = assay: as above; format: cell-based; details: Homo sapiens, ALL (T-cell), 72 hours
# Experimental: as §1
# Jurkat = assay: as above; format: cell-based; details: Homo sapiens, ALL (T-cell), 72 hours
# Experimental: as §1
# SEM cells = assay: as above; format: cell-based; details: Homo sapiens, ALL (B-cell), 72 hours
# Experimental: as §1
# MV4-11 = assay: as above; format: cell-based; details: Homo sapiens; MV4-11, B-myelomonocytic (Biphenotypic B-cell leukemia); 72 hours
# Experimental: as §1
# SR = assay: as above; format: cell-based; details: Homo sapiens, Lymphoma, 72 hours
# Experimental: as §1
# K562 cells = assay: Subcutaneous K562 (CML) tumor growth in SCID mice (Example 6); format: in vivo; details: for Average body weight, End point / Average body weight, Initial / Tumor size / Tumor weight: x ± s; for Average body weight, Initial: initial (before treatment)
# Experimental: Male Severe Combined Immunodeficiency (SCID) mice that were 4-6 weeks old were used in the experiment. The mice were fed under specific pathogen free (SPF) conditions. Food and water were available to the mice at will. A suspension of 8×10^6 chronic myelogenous leukemia K562 cells (0.2 mL) was inoculated subcutaneously into the right back of the SCID mice.
# The general conditions of the mice and the growth of the transplanted tumor were monitored. […] The control group received an intraperitoneal injection (IP) of 0.2 mL solvent (20% DMSO, 80% of 20% w/v (2-hydroxypropyl)-β-cyclodextrin made in PBS). […] The YT30 treated groups received either intraperitoneal injection of 50 mg/kg/day of YT30 (0.2 mL in volume) suspended in solvent (20% DMSO, 80% of 20% w/v (2-hydroxypropyl)-β-cyclodextrin made in PBS) or oral gavage of 90 mg/kg/day YT30 in solvent (Cremophor RH40:TW80:PEG400 (2:1:1)). Frequency of the administration was once per day and the experiment lasted 16 days after initiation of the treatment.
# The body weights of the mice were recorded prior to the start of treatment and twice every week thereafter. Each mouse of every group was monitored daily for any other symptoms of side effects including change in behavior, activity or posture, areas of redness and swelling, and food and water withdrawal. Caliper measurements of the longest perpendicular tumor diameters were performed every 2 days to estimate the tumor volume; the following formula: 4π/3×(width/2)^2×(length/2) was used to calculate the three-dimensional volume of an ellipse. The tumor inhibition rate was calculated according to tumor volume: Tumor inhibition rate by size (%)=(Tumor volume of the control group−Tumor volume of the treated group)/Tumor volume of the control group×100. The SCID mice were euthanized 2 hours after the final injection and the subcutaneous tumor nodules were taken out intact and weighed. The tumor inhibition rate was calculated again according to tumor weight: Tumor inhibition rate by weight (%)=(Tumor weight of the control group−Tumor weight of the treated group)/Tumor weight of the control group×100.
# REH = assay: Leukemia cell growth inhibition, CellTiter-Glo (Example 1); format: cell-based, human; details: REH cells, 4 μM
# Experimental: as §1
# RCH-ACV = assay: as above; format: cell-based; details: Homo sapiens, ALL (B-cell), 72 hours
# Experimental: as §1
# BaF3 BCR-ABL = assay: as above; format: cell-based; details: Mouse cell line with BCR-ABL, 72 hours
# Experimental: as §1
# [1] = YT30 50 mg/kg i.p. × 16 days, SCID mice, K562 tumor
# [2] = YT30 90 mg/kg p.o. × 16 days, SCID mice, K562 tumor
compound,measurement,setting,value
Nc1ccccc1NC(=O)CCCCCC(=O)Nc1cccc(Br)c1 [YT30],pIC50,K562R,5.49
same,pIC50,MOLT-4,5.95
same,pIC50,K-562,5.74
same,pIC50,RS4;11,5.98
same,Growth inhibition (FIG. 1),"HL60; HL60 cells, 4 μM",significantly inhibit cell growth
same,pIC50,"HL60; Homo sapiens, HL-60, HL60, AML (subtype APL), 72 hours",5.98
same,inhibition at 0.5 µM,Nalm-6,2.5%
same,inhibition at 1 µM,Nalm-6,8.4%
same,pIC50,BaF3 BCR-ABL T315I,5.95
same,Average life span after inoculation for IP 50 mg/KG group,"Nalm-6 cells; IP 50 mg/kg qd for 5 days/week, 3 weeks, 5 × 10^6 Nalm-6 cells, 50 mg/kg",48.8 ± 9.7 days
same,Mice that appeared to be cured,"Nalm-6 cells; IP 50 mg/kg, 4 weeks, 3.5 × 10^6 Nalm-6 cells, euthanized 341 days after treatment start",three out of five
same,pIC50,U266,5.08
same,pIC50,CCRF-CEM,5.82
same,pIC50,Jurkat,6.04
same,pIC50,SEM cells,5.94
same,pIC50,MV4-11,5.39
same,pIC50,SR,5.16
same,Body weight change,K562 cells; [1],−8.67%
same,Tumor growth inhibition by size,K562 cells; [1],44.07%
same,Tumor growth inhibition by weight,K562 cells; [1],40.76%
same,"Average body weight, End point",K562 cells; [1],16.75 ± 1.57 g
same,"Average body weight, Initial",K562 cells; [1],18.34 ± 0.73 g
same,Tumor size,K562 cells; [1],1741.11 ± 1218.90 mm^3
same,Tumor weight,K562 cells; [1],2.16 ± 1.86 g
same,Body weight change,K562 cells; [2],−5.30%
same,Tumor growth inhibition by size,K562 cells; [2],41.77%
same,Tumor growth inhibition by weight,K562 cells; [2],33.17%
same,"Average body weight, End point",K562 cells; [2],17.70 ± 2.03 g
same,"Average body weight, Initial",K562 cells; [2],18.69 ± 1.36 g
same,Tumor size,K562 cells; [2],1812.71 ± 581.68 mm^3
same,Tumor weight,K562 cells; [2],2.44 ± 0.92 g
same,Tumor growth inhibition by weight,"K562 cells; intraperitoneal 50 mg/kg/day, 16 days of treatment",40.76%
same,Tumor growth inhibition by weight,"K562 cells; oral gavage 90 mg/kg/day, 16 days of treatment",33.17%
same,Growth inhibition (FIG. 1),REH,significantly inhibit cell growth
same,pIC50,RCH-ACV,6.10
same,pIC50,BaF3 BCR-ABL,5.47
